The results in this text go back to ChEMBL document CHEMBL4229439, “Design, synthesis and antimycobacterial activity of 3,5-dinitrobenzamide derivatives containing fused ring moieties” (2018).

Molecules are shown by their SMILES. Values after ≈ are worked out from the molar mass of the structure shown. Active and inactive are the calls of the source. No cut-off for these calls is given here. Some results are limits rather than exact numbers.

The first assay relates to Mycobacterium tuberculosis. In words: Antimycobacterial activity against Mycobacterium tuberculosis H37Rv ATCC 27294 after 7 days by Alamar blue assay. In kind it is functional. The following applies: H37Rv ATCC 27294, 168 h.
`O=C(NCc1ccc2c(c1)CN(C(=O)c1ccc(F)cc1)C2)c1cc([N+](=O)[O-])cc([N+](=O)[O-])c1` returned an MIC of 0.926 µg/mL (≈ 1.99 µM).
The compound `O=C(NCc1ccc2c(c1)CCN(C(=O)CC1CCCCC1)C2)c1cc([N+](=O)[O-])cc([N+](=O)[O-])c1` returned an MIC of 0.978 µg/mL (≈ 2.04 µM).
For `NNC(=O)c1ccncc1` [ISONIAZID], the MIC is 0.039 µg/mL (≈ 0.284 µM).
The same measure, in the same setting: the value for `O=C(NCc1ccc2c(c1)CCN(Cc1ccc(Cl)cc1)C2)c1cc([N+](=O)[O-])cc([N+](=O)[O-])c1` was 0.056 µg/mL (≈ 0.116 µM); that for `O=C(CN1CCc2cc(CNC(=O)c3cc([N+](=O)[O-])cc([N+](=O)[O-])c3)ccc2C1)OCc1ccccc1` was 7.55 µg/mL (≈ 15 µM).
Same read-out and setting: as for `O=C(NCc1ccc2c(c1)CN(C(=O)c1ccc(OC(F)(F)F)cc1)C2)c1cc([N+](=O)[O-])cc([N+](=O)[O-])c1`, the figure is 0.309 µg/mL (≈ 0.583 µM); as for `O=C(NCc1ccc2c(c1)CCN(CC1CCCCC1)C2)c1cc([N+](=O)[O-])cc([N+](=O)[O-])c1`, 0.226 µg/mL (≈ 0.499 µM).
Same read-out and setting: the value for `O=C(NCc1ccc2c(c1)CN(c1ccc(C(F)(F)F)cc1)C2)c1cc([N+](=O)[O-])cc([N+](=O)[O-])c1` was 0.098 µg/mL (≈ 0.201 µM); that for `O=c1nc(N2CCN(CC3CCCCC3)CC2)sc2c([N+](=O)[O-])cc(C(F)(F)F)cc12` [MACOZINONE] was less than 0.016 µg/mL; that for `O=C(NCc1ccc2c(c1)CN(Cc1ccc(C(F)(F)F)cc1)C2)c1cc([N+](=O)[O-])cc([N+](=O)[O-])c1` was less than 0.016 µg/mL.
`O=C(NCc1ccc2c(c1)CCN(c1ccc(C(F)(F)F)cc1)C2)c1cc([N+](=O)[O-])cc([N+](=O)[O-])c1` gave an MIC of 0.079 µg/mL (≈ 0.158 µM).
The same measure, in the same setting: as for `O=C(NCc1ccc2c(c1)CCN(Cc1ccc(F)cc1)C2)c1cc([N+](=O)[O-])cc([N+](=O)[O-])c1`, the figure is 0.122 µg/mL (≈ 0.263 µM); as for `O=C(CN1CCc2cc(CNC(=O)c3cc([N+](=O)[O-])cc([N+](=O)[O-])c3)ccc2C1)NCc1ccccc1`, 3.96 µg/mL (≈ 7.86 µM).
Still for that read-out and setting: as for `O=C(NCc1ccc2c(c1)CCN(C(=O)C1CCCCC1)C2)c1cc([N+](=O)[O-])cc([N+](=O)[O-])c1`, the figure is 0.5 µg/mL (≈ 1.07 µM); as for `O=C(NCc1ccc2c(c1)CN(c1ccc(F)cc1)C2)c1cc([N+](=O)[O-])cc([N+](=O)[O-])c1`, 0.026 µg/mL (≈ 0.0596 µM).
For `O=C(NCc1ccc2c(c1)CN(C(=O)c1ccccc1)C2)c1cc([N+](=O)[O-])cc([N+](=O)[O-])c1`, the lowest concentration to inhibit growth (MIC) was 1.45 µg/mL (≈ 3.25 µM).
Still for that read-out and setting: the value for `O=C(NCc1ccc2c(c1)CCN(c1ccc(OC(F)(F)F)cc1)C2)c1cc([N+](=O)[O-])cc([N+](=O)[O-])c1` was 0.241 µg/mL (≈ 0.467 µM); that for `O=C(NCc1ccc2c(c1)CCN(Cc1cccc(F)c1)C2)c1cc([N+](=O)[O-])cc([N+](=O)[O-])c1` was 0.056 µg/mL (≈ 0.121 µM); that for `O=C(NCc1ccc2c(c1)CCN(Cc1ccc(Br)cc1)C2)c1cc([N+](=O)[O-])cc([N+](=O)[O-])c1` was 0.108 µg/mL (≈ 0.206 µM).
`COc1ccc(C(=O)N2CCc3cc(CNC(=O)c4cc([N+](=O)[O-])cc([N+](=O)[O-])c4)ccc3C2)cc1` came in with an MIC of 1.15 µg/mL (≈ 2.34 µM).
On the same count and under the same terms, the value for `O=C(NCc1ccc2c(c1)CN(Cc1ccc(OC(F)(F)F)cc1)C2)c1cc([N+](=O)[O-])cc([N+](=O)[O-])c1` was 0.016 µg/mL (≈ 0.031 µM); that for `CC(C)(C)OC(=O)CN1CCc2cc(CNC(=O)c3cc([N+](=O)[O-])cc([N+](=O)[O-])c3)ccc2C1` was 3.81 µg/mL (≈ 8.1 µM); that for `O=C(NCc1ccc2c(c1)CCN(C(=O)c1ccc(F)cc1)C2)c1cc([N+](=O)[O-])cc([N+](=O)[O-])c1` was 0.424 µg/mL (≈ 0.886 µM).
Still for that read-out and setting: as for `O=C(NCc1ccc2c(c1)CN(C(=O)C1CCCCC1)C2)c1cc([N+](=O)[O-])cc([N+](=O)[O-])c1`, the figure is 0.808 µg/mL (≈ 1.79 µM); as for `O=C(NCc1ccc2c(c1)CCN(Cc1cc(C(F)(F)F)cc(C(F)(F)F)c1)C2)c1cc([N+](=O)[O-])cc([N+](=O)[O-])c1`, 1.9 µg/mL (≈ 3.26 µM).
Consider `CC(C)(C)C(=O)N1Cc2ccc(CNC(=O)c3cc([N+](=O)[O-])cc([N+](=O)[O-])c3)cc2C1`, for which the MIC turned out to be 0.489 µg/mL (≈ 1.15 µM). This MIC lies about 3.9-fold lower than the previous one.
On the same count and under the same terms, the value for `CCC(C)C(=O)N1CCc2cc(CNC(=O)c3cc([N+](=O)[O-])cc([N+](=O)[O-])c3)ccc2C1` (stereo not drawn) was 0.468 µg/mL (≈ 1.06 µM); that for `CCOC(=O)CN1CCc2cc(CNC(=O)c3cc([N+](=O)[O-])cc([N+](=O)[O-])c3)ccc2C1` was 0.243 µg/mL (≈ 0.549 µM).
Consider `CN1CCc2cc(CNC(=O)c3cc([N+](=O)[O-])cc([N+](=O)[O-])c3)ccc2C1`, for which the MIC amounted to 11.4 µg/mL (≈ 30.9 µM).
Turning to `COc1ccc(C(=O)N2Cc3ccc(CNC(=O)c4cc([N+](=O)[O-])cc([N+](=O)[O-])c4)cc3C2)cc1`, the minimal inhibitory concentration (MIC) is greater than 32 µg/mL.
The compound `O=C(NCc1ccc2c(c1)CNC2)c1cc([N+](=O)[O-])cc([N+](=O)[O-])c1` gave an MIC of less than 0.016 µg/mL.
The same measure, in the same setting: the value for `CC(C)CC(=O)N1CCc2cc(CNC(=O)c3cc([N+](=O)[O-])cc([N+](=O)[O-])c3)ccc2C1` was 0.204 µg/mL (≈ 0.463 µM); that for `O=C(NCc1ccc2c(c1)CCN(C(=O)c1ccccc1)C2)c1cc([N+](=O)[O-])cc([N+](=O)[O-])c1` was 0.974 µg/mL (≈ 2.12 µM); that for `O=C(NCc1ccc2c(c1)CN(Cc1ccc(F)cc1)C2)c1cc([N+](=O)[O-])cc([N+](=O)[O-])c1` was 0.028 µg/mL (≈ 0.0622 µM).
Same read-out and setting: the value for `O=C(NCc1ccc2c(c1)CCN(c1ccc(F)cc1)C2)c1cc([N+](=O)[O-])cc([N+](=O)[O-])c1` was 0.076 µg/mL (≈ 0.169 µM); that for `O=C(NCc1ccc2c(c1)CCN(Cc1ccc(OC(F)(F)F)cc1)C2)c1cc([N+](=O)[O-])cc([N+](=O)[O-])c1` was 0.241 µg/mL (≈ 0.454 µM); that for `CCN(CC)C(=O)CN1CCc2cc(CNC(=O)c3cc([N+](=O)[O-])cc([N+](=O)[O-])c3)ccc2C1` was 15.3 µg/mL (≈ 32.7 µM).
Still for that read-out and setting: as for `CC(=O)CCN1CCc2cc(CNC(=O)c3cc([N+](=O)[O-])cc([N+](=O)[O-])c3)ccc2C1`, the figure is 22.7 µg/mL (≈ 53.3 µM); as for `CO[C@H]1/C=C/O[C@@]2(C)Oc3c(C)c(O)c4c(O)c(c(/C=N/N5CCN(C)CC5)c(O)c4c3C2=O)NC(=O)/C(C)=C\C=C\[C@H](C)[C@H](O)[C@@H](C)[C@@H](O)[C@@H](C)[C@H](OC(C)=O)[C@@H]1C` [RIFAMPIN], 0.095 µg/mL (≈ 0.115 µM); as for `CC(C)(C)C(=O)N1CCc2cc(CNC(=O)c3cc([N+](=O)[O-])cc([N+](=O)[O-])c3)ccc2C1`, 0.447 µg/mL (≈ 1.01 µM).
For `COc1ccc(CN2Cc3ccc(CNC(=O)c4cc([N+](=O)[O-])cc([N+](=O)[O-])c4)cc3C2)cc1`, the MIC stood at 0.03 µg/mL (≈ 0.0649 µM).
Same read-out and setting: as for `CC(=O)CN1CCc2cc(CNC(=O)c3cc([N+](=O)[O-])cc([N+](=O)[O-])c3)ccc2C1`, the figure is 3.12 µg/mL (≈ 7.56 µM).

The test system of another assay is Mycobacterium tuberculosis. In words: Antimycobacterial activity against Mycobacterium tuberculosis H37Rv ATCC 27294 up to 10 ug/ml after 7 days by Alamar blue assay. In kind it is functional, organism-based.
Conditions: not given
In the case of `O=C(NCc1ccc2c(c1)CNC2)c1cc([N+](=O)[O-])cc([N+](=O)[O-])c1`, the result was inactive.
